Test results published in PubChem BioAssay (NCI).
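A five-concentration, 48-hour dose response in 96-well plates underlies each endpoint, interpolated linearly between surrounding concentrations. At the GI50, growth is halved. The concentration for full growth arrest is given as TGI.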

System: MDA-MB-468 breast
Assay: inhibition of tumour cell growth, NCI panel, 48 h

Question: `COc1ccc(C2[C@@H](Cl)C(=O)N2c2cc(OC)c(OC)c(OC)c2)cc1Cl` (stereo partly drawn) was tested. Which GI50 did it give?
Answer: Its GI50 is 201 nM.

Question: What about the TGI of the same compound?
Answer: Its TGI is 0.963 µM.

Question: What does the source list for `CCCCn1c(=O)c2c(nc3n2CCCN3CCc2ccc(OCC(=O)NCCN(CC)CC)cc2)n(CCCC)c1=O`?
Answer: GI50: 1730 nM; TGI: 6.86 µM

Question: For `Cc1c(C2=C(c3cn(C)c4ccccc34)C(=O)NC2=O)c2ccccc2n1C`, which GI50 is on record?
Answer: Its GI50 is 921 nM.

Question: And the TGI?
Answer: The TGI was > 22.5 µM.

Question: `COc1ccc2cc(-c3c(-c4ccncc4)nc(-c4ccc(S(C)=O)cc4)n3C)ccc2c1` (stereo not drawn) was tested. Which GI50 did it give?
Answer: The GI50 was 3110 nM.

Question: What about the TGI of the same compound?
Answer: Its TGI is > 25 µM.

Question: Which results are given for `O=C1NC(=O)C(c2cccc(Cl)c2)=C1Nc1ccc(O)c(Cl)c1`?
Answer: GI50: 5940 nM; TGI: > 20.3 µM

Question: Which GI50 does the source give for `CN1CCN(Cc2ccc(NC(=O)c3[nH]ncc3Nc3ncnc4sc5c(c34)CCCC5)cc2)CC1` here?
Answer: Its GI50 is 476 nM.

Question: And the TGI?
Answer: The TGI was 2.3 µM.

Question: Which results are given for `O=[N+]([O-])c1cc(S(=O)(=O)Oc2ccccc2)ccc1Cl`?
Answer: GI50: 1830 nM; TGI: 3.64 µM

Question: `CCN1C(=O)N(CC)C2C1NN=c1s/c(=C3\C(=O)N(CCc4ccccc4)c4ccccc43)c(=O)n12` (stereo not drawn) was tested. Which GI50 did it give?
Answer: The GI50 was 338 nM.

Question: What about the TGI of the same compound?
Answer: Its TGI is 2.37 µM.

Question: What does the source list for `O=C(Nc1cccc(Nc2ncc(Br)c(NCCc3cnc[nH]3)n2)c1)N1CCCC1`?
Answer: GI50: 637 nM; TGI: 9.09 µM

Question: How did the GI50 turn out when `CC1(C)N=C(N)N=C(N)N1c1ccc(CCCCc2ccc(S(=O)(=O)F)cc2)c(Cl)c1` was run?
Answer: The GI50 was 281 nM.

Question: What about the TGI of the same compound?
Answer: The TGI was 10.8 µM.

Question: What does the source list for `COc1ccc(-c2oc3cc(O)cc(O)c3c(=O)c2OC)cc1O`?
Answer: GI50: 565 nM; TGI: 3.45 µM

Question: Which GI50 does the source give for `N#CN1CC[C@H](C(=O)Nc2ncc(-c3ccncc3)s2)C1` here?
Answer: The GI50 was < 15.6 nM.

Question: And the TGI?
Answer: Its TGI is < 0.0282 µM.

Question: How did the GI50 turn out when `COc1cc(/C=C/[N+](=O)[O-])cc(Br)c1OC` was run?
Answer: Its GI50 is 1590 nM.

Question: What about the TGI of the same compound?
Answer: Its TGI is 3.28 µM.

Question: Which GI50 does the source give for `COc1ccc(OC)c(Cn2cc3c(c2)-c2oncc2CC3)c1` here?
Answer: Its GI50 is 1200 nM.

Question: And the TGI?
Answer: Its TGI is 4.37 µM.

Question: Which results are given for `COC(=O)c1nc(-c2ccccc2)oc1S(=O)(=O)n1nc(C)cc1N`?
Answer: GI50: 3980 nM; TGI: 16.9 µM

Question: How did the GI50 turn out when `O=c1[nH]cnc2c(C3NC(CO)C(O)C3O)c[nH]c12` (stereo not drawn) was run?
Answer: The GI50 was > 100000 nM.

Question: What about the TGI of the same compound?
Answer: Its TGI is > 100 µM.

Question: For `CCN(CCO)CC(C)Nc1ccc([N+](=O)[O-])c2sc3ccccc3c(=O)c12` (stereo not drawn), which GI50 is on record?
Answer: The GI50 was 1680 nM.

Question: What about the TGI of the same compound?
Answer: Its TGI is 7.29 µM.

Question: Which GI50 does the source give for `CC(=O)Oc1ccccc1C(=O)/C=C/c1cccc([N+](=O)[O-])c1` here?
Answer: The GI50 was 2030 nM.

Question: What about the TGI of the same compound?
Answer: Its TGI is 4 µM.

Question: How did the GI50 turn out when `CCN1C(=O)N(CC)C2C1NN=c1s/c(=C\c3ccccc3Br)c(=O)n12` (stereo not drawn) was run?
Answer: Its GI50 is 35.2 nM.

Question: And the TGI?
Answer: Its TGI is 1.15 µM.

Question: For `COc1ccc(C(=O)N2c3ccccc3Sc3ccccc32)c(OC)c1`, which GI50 is on record?
Answer: The GI50 was 327 nM.

Question: And the TGI?
Answer: Its TGI is 56.1 µM.

Question: How did the GI50 turn out when `CCN(Cc1ccc(Cl)s1)c1ccc(CO)c(Cl)c1` was run?
Answer: The GI50 was 19.3 nM.

Question: What about the TGI of the same compound?
Answer: The TGI was 0.0526 µM.

Question: What does the source list for `CC1OC(O[C@H]2/C=C/C=C/C=C/C=C/C=C/C=C/C=C/[C@H](C)[C@@H](O)[C@@H](C)[C@H](C)OC(=O)CC(O)CC(O)CCC(O)C(O)CC(O)C[C@]3(O)C[C@H](O)C(C(=O)O)C(C2)O3)C(O)[C@H](N)C1O` (stereo partly drawn)?
Answer: GI50: 14900 nM; TGI: 32.4 µM

Question: Which GI50 does the source give for `Cc1nc2ccccc2c(/C=C/c2ccc(Br)cc2)c1C(=O)/C=C/c1ccccc1` here?
Answer: Its GI50 is 1980 nM.

Question: What about the TGI of the same compound?
Answer: The TGI was 4.2 µM.

Question: Which GI50 does the source give for `C[C@@H]1O[C@@H](O[C@H]2CC[C@@]3(C)[C@H](CCC4[C@@H]3C(O)C[C@]3(C)[C@@H](c5ccc(=O)oc5)CC[C@]43O)C2)[C@H](O)[C@H](O)[C@H]1O` (stereo partly drawn) here?
Answer: The GI50 was 5.94 nM.

Question: And the TGI?
Answer: Its TGI is 0.0121 µM.
